Results on eleven molecules are retold here after ChEMBL document CHEMBL1201862, “PubChem BioAssay data set” (2004).

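Protocol summary: plate cells (96-well), add compound at 5 concentrations, incubate 48 h, interpolate endpoints linearly. At the GI50, growth is halved.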 The source made the active and inactive calls. Cut-off read from the data, not from the text of the source: active = GI50 up to about 1.1 µM and inactive = higher.

Some test systems named below: A549; CAKI-1; HCC 2998; KM12; MCF7; NCI-H23; NCI-H460; OVCAR-3; OVCAR-4; OVCAR-8; RXF 393; SK-MEL-28; SN12C; SNB-75; TK-10; UACC-257; UO-31; SK-MEL-5; SW-620; Malme-3M.
Holding throughout (assay): NCI-60 cell line screen, 48 h

`CN(C)CCCn1c(-c2ccc(Br)cc2)cs/c1=N\c1ccccc1`: the GI50 was 17.5 µM (inactive) in the experiment on A549; 10.2 µM (inactive) in the experiment on CAKI-1; 5.38 µM (inactive) with HCC 2998; 13 µM (inactive) with KM12; 16 µM (inactive) in the experiment on MCF7; 10.7 µM (inactive) in the experiment with NCI-H23. Besides, the GI50 with NCI-H460 is 12.2 µM (inactive); with OVCAR-3 it was 10.6 µM (inactive); in the experiment with OVCAR-4, 16.1 µM (inactive); in the experiment on OVCAR-8, 15.9 µM (inactive); in the experiment with RXF 393, 12.9 µM (inactive); with SK-MEL-28, 18.5 µM (inactive). The GI50 was 18.5 µM (inactive) in the experiment on SN12C; 15.8 µM (inactive) in the experiment on SNB-75; 15.9 µM (inactive) with TK-10; 14.6 µM (inactive) with UACC-257; 10.4 µM (inactive) with UO-31.
As for `CCOC(O)C(F)(F)F` (configuration not stated), the GI50 in the experiment on A549, in the experiment with HCC 2998, in the experiment with KM12, with MCF7, in the experiment on NCI-H23 and with NCI-H460 was > 100 µM (inactive) each time. Moreover, the GI50 with OVCAR-3, in the experiment on OVCAR-8, with RXF 393, in the experiment with SK-MEL-28, in the experiment on SK-MEL-5 and with SN12C was > 100 µM (inactive) each time. The GI50 in the experiment with SNB-75, with SW-620, with TK-10, in the experiment on UACC-257 and in the experiment on UO-31 was > 100 µM (inactive) throughout.
In the case of `CCOC(=O)c1csc(NC(=O)CN2CCCC2)n1`, the GI50 with A549, with CAKI-1, in the experiment with HCC 2998, with KM12, with MCF7 and in the experiment on NCI-H23 was > 100 µM (inactive) in each case. The GI50 with NCI-H460, in the experiment with OVCAR-3, in the experiment with OVCAR-4, with OVCAR-8, with RXF 393 and in the experiment with SK-MEL-28 was > 100 µM (inactive) in each case. The GI50 with SK-MEL-5, in the experiment with SNB-75, with SW-620, with TK-10, with UACC-257 and in the experiment with UO-31 was > 100 µM (inactive) each time.
Turning to `COC(=O)C(NC(=O)OC(C)(C)C)P(=O)(OC)OC` (configuration not stated), the GI50 in the experiment on A549, in the experiment on CAKI-1, in the experiment on KM12, with MCF7, in the experiment on Malme-3M and with NCI-H23 was > 100 µM (inactive) in each case. In addition, the GI50 in the experiment with OVCAR-3, in the experiment on OVCAR-4, in the experiment on OVCAR-8, in the experiment on RXF 393, in the experiment on SK-MEL-28 and in the experiment with SK-MEL-5 was > 100 µM (inactive) throughout. Further, the GI50 in the experiment on SN12C, with SW-620, in the experiment with TK-10, with UACC-257 and with UO-31 was > 100 µM (inactive) in each case.
As for `CCOC(=O)c1csc(NC(=O)CCN2CCN(C)CC2)n1`, the GI50 is > 100 µM (inactive) in the experiment with A549; 64.1 µM (inactive) in the experiment on CAKI-1; > 100 µM (inactive) with HCC 2998; > 100 µM (inactive) in the experiment with KM12; 89.3 µM (inactive) in the experiment with MCF7; > 100 µM (inactive) in the experiment on NCI-H23. Besides, the GI50 in the experiment on NCI-H460, in the experiment with OVCAR-3, with OVCAR-4, in the experiment with OVCAR-8, in the experiment on RXF 393 and with SK-MEL-28 was > 100 µM (inactive) each time. The GI50 is > 100 µM (inactive) in the experiment on SK-MEL-5; > 100 µM (inactive) with SNB-75; 43.2 µM (inactive) with SW-620; > 100 µM (inactive) with TK-10; > 100 µM (inactive) in the experiment with UACC-257; > 100 µM (inactive) in the experiment with UO-31.
`COc1ccc(C2C3CCc4ccccc4C3=NN2S(=O)(=O)c2cccc(C(=O)O)c2OC)cc1` (configuration not stated): the GI50 in the experiment on A549 is 10.1 µM (inactive); in the experiment on CAKI-1, 22.5 µM (inactive); with KM12, 2.48 µM (inactive); in the experiment with MCF7, 2.19 µM (inactive); in the experiment with Malme-3M it was 13.3 µM (inactive); in the experiment with NCI-H23, 52.4 µM (inactive). In addition, the GI50 with NCI-H460 was 5.66 µM (inactive); with OVCAR-3, 5.35 µM (inactive); in the experiment with OVCAR-4, 19.4 µM (inactive); with OVCAR-8, 23.6 µM (inactive); in the experiment with RXF 393 it was 13.1 µM (inactive); in the experiment on SK-MEL-5 it was 6.62 µM (inactive). The GI50 in the experiment with SN12C was 27.3 µM (inactive); with SW-620, 6.98 µM (inactive); with TK-10, 22.9 µM (inactive); with UO-31 it was 19.4 µM (inactive).
`Cc1cc2nc3c(C(O)CO)nn(-c4ccccc4)c3nc2cc1C` (configuration not stated): the GI50 is 12.9 µM (inactive) in the experiment on A549; 15.8 µM (inactive) in the experiment on CAKI-1; 16.2 µM (inactive) in the experiment on KM12; 20.2 µM (inactive) with MCF7; 23 µM (inactive) in the experiment with NCI-H23; 12.7 µM (inactive) in the experiment on NCI-H460. Further, the GI50 in the experiment with OVCAR-3 is 15.8 µM (inactive); in the experiment on OVCAR-4, 20.2 µM (inactive); in the experiment with OVCAR-8 it was 23.2 µM (inactive); in the experiment on RXF 393, 14.5 µM (inactive); in the experiment on SK-MEL-28 it was 20.7 µM (inactive); in the experiment on SK-MEL-5, 30.9 µM (inactive). For the same molecule, the GI50 in the experiment with SN12C is 13.8 µM (inactive); with SNB-75, 22.4 µM (inactive); with SW-620 it was 20.5 µM (inactive); in the experiment on TK-10 it was 14 µM (inactive); in the experiment with UACC-257 it was 22 µM (inactive); in the experiment on UO-31, 15.1 µM (inactive).
In the case of `CN(C)c1cccc2c1C(=O)C=CC21CCc2ccc(N(C)C)c3c(N(C)C)ccc1c23` (configuration not stated), the GI50 with A549 was 18.1 µM (inactive); with CAKI-1 it was 21.4 µM (inactive); in the experiment with KM12 it was 14.8 µM (inactive); in the experiment with MCF7, 11.7 µM (inactive); in the experiment on Malme-3M it was 11.5 µM (inactive); with NCI-H23, 16.9 µM (inactive). Also, the GI50 in the experiment with NCI-H460 is 9.04 µM (inactive); in the experiment with OVCAR-3 it was 8.34 µM (inactive); with OVCAR-4, 14.8 µM (inactive); with OVCAR-8, 13.7 µM (inactive); in the experiment with RXF 393, 7.38 µM (inactive); in the experiment with SK-MEL-28 it was 15.4 µM (inactive). The GI50 in the experiment on SK-MEL-5 is 16.3 µM (inactive); in the experiment on SN12C, 12.2 µM (inactive); in the experiment on SNB-75, 4.8 µM (inactive); with SW-620 it was 16.1 µM (inactive); in the experiment on TK-10 it was 14.6 µM (inactive); with UACC-257 it was 11.9 µM (inactive). In addition, in the experiment with UO-31, the GI50 was 11.9 µM (inactive).
For `C[N+](C)(C)/C=N\c1cccc2c1CCCC2`, the GI50 is 72.9 µM (inactive) with A549; > 100 µM (inactive) with CAKI-1; > 100 µM (inactive) in the experiment on MCF7; > 100 µM (inactive) in the experiment with Malme-3M; 79.6 µM (inactive) in the experiment with NCI-H23; > 100 µM (inactive) in the experiment with OVCAR-3. The GI50 with OVCAR-4 was > 100 µM (inactive); in the experiment with OVCAR-8, > 100 µM (inactive); with RXF 393, > 100 µM (inactive); in the experiment with SK-MEL-28, > 100 µM (inactive); in the experiment with SK-MEL-5, 41.2 µM (inactive); with SN12C, > 100 µM (inactive). The GI50 in the experiment with SNB-75 was 56.5 µM (inactive); in the experiment with TK-10 it was > 100 µM (inactive); with UACC-257, 45.1 µM (inactive); in the experiment with UO-31 it was > 100 µM (inactive).
On to `CC(C)N(C)C(=O)C12C3C4C1C1C2C3C41C#N` (configuration not stated), for which the GI50 in the experiment with A549, in the experiment with CAKI-1, in the experiment with HCC 2998, in the experiment with KM12, in the experiment on MCF7 and with NCI-H23 was > 100 µM (inactive) each time. For the same molecule, the GI50 in the experiment on NCI-H460, in the experiment on OVCAR-3, with OVCAR-4, in the experiment with OVCAR-8, in the experiment with RXF 393 and in the experiment on SK-MEL-28 was > 100 µM (inactive) each time. In addition, the GI50 was > 100 µM (inactive) with SK-MEL-5; > 100 µM (inactive) in the experiment with SN12C; 7.64 µM (inactive) in the experiment on SNB-75; > 100 µM (inactive) in the experiment with SW-620; > 100 µM (inactive) with TK-10; > 100 µM (inactive) in the experiment with UACC-257. Further, in the experiment on UO-31, the GI50 was > 100 µM (inactive).
In the case of `C=C1CC(OC)(C(OC)C(=O)N[C@H]2OCO[C@H]3C2O[C@H](C[C@@H](COC)OC)C(C)(C)C3OC)O[C@H](C)[C@@H]1C` (some centres not stated), the GI50 with A549 was 0.693 µM (active); with CAKI-1, 0.916 µM (active); in the experiment on KM12 it was 0.603 µM (active); with MCF7, 1.4 µM (inactive); in the experiment with NCI-H23 it was 1.18 µM (inactive); in the experiment on NCI-H460, 0.746 µM (active). In addition, the GI50 with OVCAR-3 is 0.755 µM (active); with OVCAR-4 it was 0.733 µM (active); in the experiment on OVCAR-8 it was 0.861 µM (active); in the experiment with RXF 393 it was 0.995 µM (active); with SK-MEL-28 it was 0.764 µM (active); in the experiment on SK-MEL-5 it was 0.622 µM (active). In addition, the GI50 is 0.746 µM (active) with SN12C; 1.21 µM (inactive) in the experiment on SNB-75; 0.859 µM (active) with SW-620; 1.1 µM (active) in the experiment with UACC-257; 0.759 µM (active) in the experiment on UO-31.
